# Assays:
# [1] = test system: Frankliniella occidentalis; test: Insecticidal test against Frankliniella occidentalis; settings: 500 ppm drug solution sprayed on hatched larvae on Phaseolus vulgaris leaf pieces, four days after treatment
# From the text: Female adults of Frankliniella occidentalis were inoculated onto Phaseolus vulgaris leaf pieces, and after allowing them to lay eggs for one day, the female adults were removed. […] Four days after the treatment, the number of surviving larvae of this species was examined. […] In duplicate.
# Plutella xylostella = test: Insecticidal test against Plutella xylostella; settings: 500 ppm drug solution, Chinese cabbage seedlings with eggs immersed about 30 sec, six days after immersion, 25° C.
# From the text: Six days after the immersion in the drug solution, the number of surviving insects was examined. […] In triplicate using 10 per plot.
# Dirofilaria immitis = test: Influence evaluation test on the growth of Dirofilaria immitis; type: cell-based; settings: 168 h, read-out: development inhibition rate from the L3 stage larva to the L4-stage larva
# Laodelphax striatellus = test: Insecticidal test against Laodelphax striatellus; settings: 500 ppm drug solution, rice seedlings immersed 30 seconds, three-instar insects, eight days after inoculation
structure (smiles),measurement,setting,value
CC1C(=O)C(C(=O)Nc2ccc(C(F)(F)F)cc2)=C(O)CC1c1ccc(C(F)(F)F)cc1 (stereo not drawn) [1-2],"corrected mortality, rating of assessment",[1],D or higher
CC1C(=O)C(C(=O)Nc2ccc(F)cc2)=C(O)CC1(C)c1ccc(C(F)(F)F)cc1 (stereo not drawn) [1-3],"corrected mortality, rating of assessment",Plutella xylostella,D or higher
"C#CCC1C(=O)C(C(=O)Nc2ccc(F)cc2)=C(O)CC1c1ccc(C(F)(F)F)cc1 (stereo not drawn) [1-7, N-(4-fluorophenyl)-5-hydroxy-3-oxo-2-(prop-2-yn-1-yl)-4′-(trifluoromethyl)-1,2,3,6-tetrahydro-[1,1′-biphenyl]-4-carboxamide]",inhibition at 10 µM,Dirofilaria immitis,≥ 50%
same,"corrected mortality, rating of assessment",Plutella xylostella,D or higher
CC1(C)C(=O)C(C(=O)Nc2ccc(F)c(F)c2)=C(O)CC1c1ccc(C(F)(F)F)cc1 (stereo not drawn) [1-10],"corrected mortality, rating of assessment",[1],D or higher
C#CCC1C(=O)C(C(=S)Nc2ccc(F)cc2)=C(O)CC1c1ccc(C(F)(F)F)cc1 (stereo not drawn) [1-18],"corrected mortality, rating of assessment",Plutella xylostella,D or higher
CC1(C)C(=O)C(C(=S)Nc2ccc(F)cc2)=C(O)CC1c1ccc(C(F)(F)F)cc1 (stereo not drawn) [1-20],"corrected mortality, rating of assessment",Plutella xylostella,D or higher
CC1(C)C(=O)C(C(=S)Nc2ccc(OC(F)(F)F)cc2)=C(O)CC1c1ccc(C(F)(F)F)cc1 (stereo not drawn) [1-22],"corrected mortality, rating of assessment",Plutella xylostella,D or higher
O=C(Nc1ccc(F)cc1)C1=C(O)CC(c2ccc(C(F)(F)F)cc2)C2(CCCC2)C1=O (stereo not drawn) [1-28],"corrected mortality, rating of assessment",Plutella xylostella,D or higher
same,"corrected mortality, rating of assessment",Laodelphax striatellus,D or higher
O=C(Nc1ccc(Oc2ccccc2)cc1)C1=C(O)CC(c2ccc(C(F)(F)F)cc2)C2(CCCCC2)C1=O (stereo not drawn) [1-38],"corrected mortality, rating of assessment",Plutella xylostella,D or higher
O=C(Nc1ccc(F)cc1)C1=C(O)CC(c2ccc(C(F)(F)F)cc2)C2(CCOCC2)C1=O (stereo not drawn) [1-45],"corrected mortality, rating of assessment",Plutella xylostella,D or higher
O=C1C(C(=S)Nc2ccc(F)cc2)=C(O)CC(c2ccc(C(F)(F)F)cc2)C12CCCC2 (stereo not drawn) [1-48],"corrected mortality, rating of assessment",Plutella xylostella,D or higher
O=C(Nc1ccc([N+](=O)[O-])cc1)C1=C(O)CC(c2ccc(C(F)(F)F)cc2)C2(CCCCC2)C1=O (stereo not drawn) [1-118],"corrected mortality, rating of assessment",Plutella xylostella,D or higher
O=C(Nc1ccccc1-c1ccccc1)C1=C(O)CC(c2ccc(C(F)(F)F)cc2)C2(CCCCC2)C1=O (stereo not drawn) [1-119],"corrected mortality, rating of assessment",Plutella xylostella,D or higher
O=C(Nc1ccc(SC(F)(F)F)cc1)C1=C(O)CC(c2ccc(C(F)(F)F)cc2)C2(CCCCC2)C1=O (stereo not drawn) [1-120],"corrected mortality, rating of assessment",Plutella xylostella,D or higher
O=C(Nc1ccc(OC(F)(F)F)cc1)C1=C(O)CC(c2ccc(C(F)(F)F)cc2)C2(CCCCC2)C1=O (stereo not drawn) [1-122],"corrected mortality, rating of assessment",Plutella xylostella,D or higher
Cl.O=C(Nc1ccc(F)cc1)C1=C(O)CC(c2ccc(C(F)(F)F)cc2)C2(CCNCC2)C1=O (stereo not drawn) [1-136],"corrected mortality, rating of assessment",Plutella xylostella,D or higher
CC1(C)C(=O)C(C(=O)Nc2ccc(F)cn2)=C(O)CC1c1ccc(Br)cn1 (stereo not drawn) [1-142],"corrected mortality, rating of assessment",Plutella xylostella,D or higher
CC1(C)C(=O)C(C(=O)Nc2ccc(F)nc2)=C(O)CC1c1ccc(Br)cn1 (stereo not drawn) [1-143],"corrected mortality, rating of assessment",Plutella xylostella,D or higher
O=C1CC2c3cc(C(F)(F)F)ccc3CC2C(O)=C1C(=O)Nc1ccc(F)cc1 (stereo not drawn) [2-1],"corrected mortality, rating of assessment",Plutella xylostella,D or higher
O=C1CC2c3ccc(C(F)(F)F)cc3CCC2C(O)=C1C(=O)Nc1ccc(F)cc1 (stereo not drawn) [2-2],"corrected mortality, rating of assessment",Plutella xylostella,D or higher
CC1C(=O)C(C(=O)Nc2ccc(F)cc2)=C(O)C2CCc3cc(C(F)(F)F)ccc3C12 (stereo not drawn) [2-4],"corrected mortality, rating of assessment",Plutella xylostella,D or higher
CC1C(=O)C(C(=S)Nc2ccc(F)cc2)=C(O)C2CCc3cc(C(F)(F)F)ccc3C12 (stereo not drawn) [2-9],"corrected mortality, rating of assessment",Plutella xylostella,D or higher
